Laboratory results reported in ChEMBL document CHEMBL6092137, “Synergistic immune augmentation enabled by covalently conjugating TLR4 and NOD2 agonists” (Eur J Med Chem, 2024).
Active and inactive are the calls of the source. The calls are words filed in the database; no cut-off is given here.

Key:
[1] = tested on: T-cell; test: Immunostimulatory activity in mouse spleen T-lymphocytes assessed as fold increase in proportion of TNF-alpha and IFN-gamma double-positive secreting CD4+ cells and measured on day 42 by staining based flow cytometric analysis RC529; format: functional; conditions: time 42 day
[2] = Induction of mouse BMDC cell maturation assessed as change in CD86 positive cells incubated for 18 hrs by staining based flow cytometric analysis relative to control; format: functional
[3] = Induction of mouse RAW264.7 cell maturation assessed as fold increase in CD80 positive cells incubated for 18 hrs by staining based flow cytometric analysis relative to combination of RC529 and Muramyl dipeptide; format: functional
[4] = Toxicity in immunized BALB/c mouse assessed as vascular congestion in kidneys measured on day 42 by H and E staining based analysis; conditions: in vivo, 1008 h, time 42 day
[5] = Immunostimulatory activity in C57BL/6 mouse BMDC cells assessed as TLR4 inhibitor mediated reduction in IL-6 level at 9.3 uM incubated for 20 hrs in presence of TAK242 by ELISA; format: functional; design: scale not given: the % may be the effect or the level left
[6] = organism: Mus musculus; test: Activation of adaptive immune response in ovalbumin immunized mouse model assessed as increase in IgG2b titers incubated for 1 hrs and measured on day 42; format: functional, organism-based
[7] = Toxicity in immunized BALB/c mouse assessed as inflammatory cell infiltration in lungs measured on day 42 by H and E staining based analysis; conditions: 1008 h, time 42 day
[8] = Immunostimulatory activity in female BALB/c mouse spleen T-lymphocytes assessed as fold increase in proportion of Tcm in CD8+ cells and measured on day 42 by staining based flow cytometric analysis relative to combination of RC529 and Muramyl dipeptide; format: functional, T-cell; conditions: time 42 day
[9] = Immunostimulatory activity in C57BL/6 mouse BMDC cells assessed as TLR4 inhibitor mediated reduction in IL-6 level at 9.3 uM incubated for 20 hrs in presence of GSK717 by ELISA; format: functional; design: scale not given: the % may be the effect or the level left
[10] = Toxicity in immunized BALB/c mouse assessed as vascular congestion in lungs measured on day 42 by H and E staining based analysis; conditions: in vivo, 1008 h, time 42 day
[11] = Induction of mouse RAW264.7 cell maturation assessed as change in CD80 positive cells incubated for 18 hrs by staining based flow cytometric analysis relative to control; format: functional
[12] = tested on: T-cell; test: Immunostimulatory activity in mouse spleen T-lymphocytes assessed as fold increase in proportion of IFN-gamma positive secreting CD4+ cells and measured on day 42 by staining based flow cytometric analysis relative to RC529 and muramyl dipeptide combination; format: functional; conditions: time 42 day
[13] = Induction of mouse BMDC cell maturation assessed as fold increase in CD80 and CD86 positive cells incubated for 18 hrs by staining based flow cytometric analysis relative to combination of RC529 and Muramyl dipeptide; format: functional
[14] = organism: Mus musculus; test: Activation of adaptive immune response in ovalbumin immunized mouse model assessed as increase in IgG titers incubated for 1 hrs and measured on 28 to 42 days; format: functional, organism-based
[15] = Immunostimulatory activity in female BALB/c mouse spleen T-lymphocytes assessed as fold increase in proportion of Tcm in CD4+ cells and measured on day 42 by staining based flow cytometric analysis relative to combination of RC529 and Muramyl dipeptide; format: functional, T-cell; conditions: time 42 day
[16] = organism: Mus musculus; test: Activation of adaptive immune response in ovalbumin immunized mouse model assessed as increase in IgG2a titers incubated for 1 hrs and measured on day 42; format: functional, organism-based
[17] = Induction of mouse RAW264.7 cell maturation assessed as change in CD86 positive cells incubated for 18 hrs by staining based flow cytometric analysis relative to control; format: functional
[18] = organism: Mus musculus; test: Activation of adaptive immune response in ovalbumin immunized mouse model assessed as fold increase in IgG titers incubated for 1 hrs and measured on day 42 relative to combination of RC529 and Muramyl dipeptide; format: functional
[19] = Toxicity in immunized BALB/c mouse assessed as inflammatory cell infiltration in heart measured on day 42 by H and E staining based analysis; format: tissue-based; conditions: 1008 h, time 42 day
[20] = Induction of mouse BMDC cell maturation assessed as fold increase in CD80 positive cells incubated for 18 hrs by staining based flow cytometric analysis relative to combination of RC529 and Muramyl dipeptide; format: functional
[21] = Toxicity in immunized BALB/c mouse assessed as inflammatory cell infiltration in liver measured on day 42 by H and E staining based analysis; conditions: 1008 h, time 42 day
[22] = tested on: Mus musculus; test: Induction of innate immunity in BALB/c mouse assessed as fold increase in IL-6 level in serum at 22.53 ug, ip measured after 2 hrs by ELISA; format: functional; conditions: dose 22.53 µg
[23] = Toxicity in immunized BALB/c mouse assessed as vascular congestion in heart measured on day 42 by H and E staining based analysis; format: tissue-based; conditions: in vivo, 1008 h, time 42 day
[24] = Immunostimulatory activity in mouse spleen T-lymphocytes assessed as fold increase in proportion of TNF-alpha positive secreting CD4+ cells and measured on day 42 by staining based flow cytometric analysis relative to RC529 and muramyl dipeptide combination; format: functional, T-cell
[25] = Toxicity in immunized BALB/c mouse assessed as vascular congestion in spleen measured on day 42 by H and E staining based analysis; conditions: in vivo, 1008 h, time 42 day
[26] = Induction of mouse BMDC cell maturation assessed as fold increase in CD86 positive cells incubated for 18 hrs by staining based flow cytometric analysis relative to combination of RC529 and Muramyl dipeptide; format: functional
[27] = Immunostimulatory activity in C57BL/6 mouse BMDC cells assessed as TLR4/NOD2 inhibitor mediated reduction in IL-6 level at 9.3 uM incubated for 20 hrs in presence of TAK242/ GSK717 by ELISA; format: functional; design: scale not given: the % may be the effect or the level left
[28] = tested on: T-cell; test: Immunostimulatory activity in mouse spleen T-lymphocytes assessed as fold increase in proportion of TNF-alpha and IFN-gamma double-positive secreting CD8+ cells and measured on day 42 by staining based flow cytometric analysis relative to combination of RC529 and muramyl dipeptide; format: functional; conditions: time 42 day
[29] = Toxicity in immunized BALB/c mouse assessed as vascular congestion in brain measured on day 42 by H and E staining based analysis; format: tissue-based; conditions: in vivo, 1008 h, time 42 day
[30] = Toxicity in immunized BALB/c mouse assessed as inflammatory cell infiltration in brain measured on day 42 by H and E staining based analysis; format: tissue-based; conditions: 1008 h, time 42 day
[31] = organism: Mus musculus; test: Activation of adaptive immune response in ovalbumin immunized mouse model assessed as increase in IgG1 titers incubated for 1 hrs and measured on day 42; format: functional, organism-based
[32] = Toxicity in immunized BALB/c mouse assessed as change in AST level measured on day 42 […]; conditions: in vivo, 1008 h, time 42 day
[33] = tested on: THP-1; test: Cytotoxicity against human THP-1 cells assessed as reduction in cell viability by MTT assay; format: toxicity, cell-based
[34] = Toxicity in immunized BALB/c mouse assessed as inflammatory cell infiltration in spleen measured on day 42 by H and E staining based analysis; conditions: 1008 h, time 42 day
[35] = Toxicity in immunized BALB/c mouse assessed as change in ALT level measured on day 42 […]; conditions: in vivo, 1008 h, time 42 day
[36] = Induction of mouse RAW264.7 cell maturation assessed as fold increase in CD80 and CD86 positive cells incubated for 18 hrs by staining based flow cytometric analysis relative to combination of RC529 and Muramyl dipeptide; format: functional
[37] = tested on: T-cell; test: Immunostimulatory activity in mouse spleen T-lymphocytes assessed as fold increase in proportion of TNF-alpha and IFN-gamma double-positive secreting CD4+ cells and measured on day 42 by staining based flow cytometric analysis relative to muramyl dipeptide; format: functional; conditions: time 42 day
[38] = Toxicity in immunized BALB/c mouse assessed as inflammatory cell infiltration in kidneys measured on day 42 by H and E staining based analysis; conditions: 1008 h, time 42 day
[39] = Induction of mouse RAW264.7 cell maturation assessed as fold increase in CD86 positive cells incubated for 18 hrs by staining based flow cytometric analysis relative to combination of RC529 and Muramyl dipeptide; format: functional
[40] = Toxicity in immunized BALB/c mouse assessed as vascular congestion in liver measured on day 42 by H and E staining based analysis; conditions: in vivo, 1008 h, time 42 day
[41] = Induction of mouse BMDC cell maturation assessed as change in CD80 positive cells incubated for 18 hrs by staining based flow cytometric analysis relative to control; format: functional

For `CCCCCCCCCCCCCC(=O)O[C@H](CCCCCCCCCCC)CC(=O)NCCO[C@@H]1O[C@H](CNC(=O)CCc2cn(CCO[C@@H]3O[C@H](CO)[C@@H](O)[C@H](O[C@H](C)C(=O)N[C@H](C)C(=O)N[C@H](CCC(=O)O)C(N)=O)[C@H]3NC(C)=O)nn2)[C@@H](OP(=O)(O)O)[C@H](OC(=O)C[C@@H](CCCCCCCCCCC)OC(=O)CCCCCCCCCCCCC)[C@H]1NC(=O)C[C@@H](CCCCCCCCCCC)OC(=O)CCCCCCCCCCCCC`, the “fold change (FC)” value [1] was 1.6, the Activity [2] was 22.4% and the “fold change (FC)” value [3] was 1.4. The Activity [4] was “Non-toxic”, the Activity [5] was 98% and the Activity [6] was “Active”. For the same molecule, the Activity [7] was “Non-toxic”, the “fold change (FC)” value [8] was 2.7 and the Activity [9] was 58%. For the same molecule, the Activity [10] was “Non-toxic”, the Activity [11] was 40.4% and the “fold change (FC)” value [12] was 1.3. The “fold change (FC)” value [13] was 1.7, the Activity [14] was “Active” and the “fold change (FC)” value [15] was 1.2. The Activity [16] was “Active”, the Activity [17] was 29.9% and the “fold change (FC)” value [18] was 2. For the same molecule, the Activity [19] was “Non-toxic”, the “fold change (FC)” value [20] was 1.3 and the Activity [21] was “Non-toxic”. The “fold change (FC)” value [22] was 6.8, the Activity [23] was “Non-toxic” and the “fold change (FC)” value [24] was 1.3. For the same molecule, the Activity [25] was “Non-toxic”, the “fold change (FC)” value [26] was 1.5 and the Activity [27] was 99%. The “fold change (FC)” value [28] was 3.3, the Activity [29] was “Non-toxic” and the Activity [30] was “Non-toxic”. For the same molecule, the Activity [31] was “Active”, the Activity [32] was “Non-toxic” and the Activity [33] was “Non-toxic”. The Activity [34] was “Non-toxic”, the Activity [35] was “Non-toxic” and the “fold change (FC)” value [36] was 2.1. The “fold change (FC)” value [37] was 1.5, the Activity [38] was “Non-toxic” and the “fold change (FC)” value [39] was 2.2. For the same molecule, the Activity [40] was “Non-toxic” and the Activity [41] was 31.5%.
